Assay results as given in doi:10.1101/2020.11.21.391136v1 (biorxiv, 2020).
Numbering of substitutions follows the chain as printed.

Columns and labels:
A3R (Hs-A3R) L264T [1] = molecular target: T1, A3R (Hs-A3R) L264T (Homo sapiens, UniProt P0DMS8, L264T); experiment: cell-based; design: species or system HEK293A
T1 sequence (P0DMS8 1-318 L264T): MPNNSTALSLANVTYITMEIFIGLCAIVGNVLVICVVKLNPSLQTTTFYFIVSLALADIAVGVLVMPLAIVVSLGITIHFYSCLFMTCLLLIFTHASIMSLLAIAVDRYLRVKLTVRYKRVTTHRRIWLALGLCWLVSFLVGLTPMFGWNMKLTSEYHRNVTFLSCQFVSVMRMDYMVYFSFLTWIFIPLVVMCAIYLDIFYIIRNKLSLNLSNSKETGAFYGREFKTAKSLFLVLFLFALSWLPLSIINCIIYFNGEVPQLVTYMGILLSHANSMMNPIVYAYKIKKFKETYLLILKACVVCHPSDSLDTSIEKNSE

A3R (Hs-A3R) [2] = molecular target: T2, A3R (Hs-A3R) (Homo sapiens, UniProt P0DMS8, I253T); experiment: cell-based; design: species or system HEK293A
T2 sequence (P0DMS8 1-318 I253T): T1 sequence (P0DMS8 1-318 L264T) with I253T, T264L

A2BR [3] = molecular target: T3, A2BR (Homo sapiens, UniProt P29275); experiment: cell-based; design: species or system HEK293A
T3 sequence (P29275 1-332): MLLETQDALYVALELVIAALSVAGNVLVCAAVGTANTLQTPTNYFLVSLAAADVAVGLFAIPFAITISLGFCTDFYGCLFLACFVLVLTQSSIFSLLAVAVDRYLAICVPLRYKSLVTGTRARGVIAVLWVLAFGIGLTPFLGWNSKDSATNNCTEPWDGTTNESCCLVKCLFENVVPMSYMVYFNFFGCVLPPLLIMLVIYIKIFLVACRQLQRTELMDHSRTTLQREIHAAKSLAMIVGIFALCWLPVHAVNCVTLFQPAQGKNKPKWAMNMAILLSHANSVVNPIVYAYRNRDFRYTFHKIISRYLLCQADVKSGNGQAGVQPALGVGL

A3R (Hs-A3R) [4] = molecular target: T4, A3R (Hs-A3R) (Homo sapiens, UniProt P0DMS8, V169E); experiment: cell-based; design: species or system HEK293A
T4 sequence (P0DMS8 1-318 V169E): T1 sequence (P0DMS8 1-318 L264T) with V169E, T264L

A3R (Hs-A3R) [5] = molecular target: T5, A3R (Hs-A3R) (Homo sapiens, UniProt P0DMS8, L264M); experiment: cell-based; design: species or system HEK293A
T5 sequence (P0DMS8 1-318 L264M): T1 sequence (P0DMS8 1-318 L264T) with T264M

A3R (Hs-A3R) [6] = molecular target: T6, A3R (Hs-A3R) (Homo sapiens, UniProt P0DMS8); experiment: cell-based; design: species or system HEK293A
T6 sequence (P0DMS8 1-318): T1 sequence (P0DMS8 1-318 L264T) with T264L

A2AR [7] = molecular target: T7, A2AR (Homo sapiens, UniProt P29274); experiment: cell-based; design: species or system HEK293A; conditions: HEK293-A, read-out: Emax (%)
T7 sequence (P29274 whole entry): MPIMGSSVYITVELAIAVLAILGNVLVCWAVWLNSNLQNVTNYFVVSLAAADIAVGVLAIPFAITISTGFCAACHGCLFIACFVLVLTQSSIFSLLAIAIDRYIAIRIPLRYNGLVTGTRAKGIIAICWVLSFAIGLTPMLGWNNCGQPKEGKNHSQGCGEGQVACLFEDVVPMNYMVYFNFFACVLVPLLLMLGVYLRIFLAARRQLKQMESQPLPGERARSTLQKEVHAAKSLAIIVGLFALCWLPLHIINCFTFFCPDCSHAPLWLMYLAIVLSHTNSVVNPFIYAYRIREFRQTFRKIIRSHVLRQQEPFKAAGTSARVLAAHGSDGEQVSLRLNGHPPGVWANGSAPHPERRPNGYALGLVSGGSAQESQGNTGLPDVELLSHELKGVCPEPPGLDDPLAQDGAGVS

A1R [8] = molecular target: T8, A1R (Homo sapiens, UniProt P30542, E172V); experiment: cell-based; design: species or system HEK293A; conditions: HEK293-A, read-out: Emax (%)
T8 sequence (P30542 1-326 E172V): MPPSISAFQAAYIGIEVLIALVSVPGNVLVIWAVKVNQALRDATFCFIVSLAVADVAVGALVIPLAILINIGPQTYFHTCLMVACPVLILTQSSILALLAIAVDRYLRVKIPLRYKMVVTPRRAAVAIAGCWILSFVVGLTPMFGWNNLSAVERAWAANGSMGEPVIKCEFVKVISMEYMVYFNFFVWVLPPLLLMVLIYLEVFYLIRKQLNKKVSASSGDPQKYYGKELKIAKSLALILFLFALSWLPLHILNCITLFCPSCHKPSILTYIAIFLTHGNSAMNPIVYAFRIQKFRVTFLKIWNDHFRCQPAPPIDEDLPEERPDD

Ss-A3R = molecular target: T9, Ss-A3R (Sus scrofa, UniProt F1SBN8); experiment: TGF-alpha shedding assay, HEK293A; assay type: cell-based
T9 sequence (F1SBN8 1-318): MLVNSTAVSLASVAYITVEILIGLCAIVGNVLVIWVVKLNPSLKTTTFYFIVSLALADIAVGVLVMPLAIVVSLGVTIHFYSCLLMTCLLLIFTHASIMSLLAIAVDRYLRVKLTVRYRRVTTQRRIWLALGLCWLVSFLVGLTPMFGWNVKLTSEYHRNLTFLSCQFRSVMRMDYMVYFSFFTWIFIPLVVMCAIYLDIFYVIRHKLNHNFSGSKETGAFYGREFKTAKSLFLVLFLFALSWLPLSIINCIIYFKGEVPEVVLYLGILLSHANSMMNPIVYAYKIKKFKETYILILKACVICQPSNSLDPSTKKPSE

A2AR [9] = molecular target: A2AR (Homo sapiens, UniProt P29274, E169V); design: species or system HEK293A; conditions: % AP-TGFα release, not normalised to a reference agonist
Chain of A2AR (Homo sapiens, UniProt P29274, E169V) (P29274 whole entry E169V): as the sequence (P29274 whole entry) above, with E169V counted along it

A2BR [10] = molecular target: T3, A2BR; experiment: TGF-alpha shedding assay, HEK293A; assay type: cell-based
A1R T270L [11] = molecular target: T10, A1R T270L (Homo sapiens, UniProt P30542, T270L); experiment: cell-based; design: species or system HEK293A; conditions: HEK293-A, read-out: Emax (%)
T10 sequence (P30542 1-326 T270L): T8 sequence (P30542 1-326 E172V) with V172E, T270L

A1R T270L [12] = molecular target: T10, A1R T270L; experiment: cell-based; design: species or system HEK293A
A2AR [13] = molecular target: A2AR (Homo sapiens, UniProt P29274, M270L); experiment: cell-based; design: species or system HEK293A; conditions: HEK293-A, read-out: Emax (%)
Chain of A2AR (Homo sapiens, UniProt P29274, M270L) (P29274 whole entry M270L): as the sequence (P29274 whole entry) above, with M270L counted along it

A1R [14] = molecular target: T11, A1R (Homo sapiens, UniProt P30542, T257I); experiment: cell-based; design: species or system HEK293A; conditions: HEK293-A, read-out: Emax (%)
T11 sequence (P30542 1-326 T257I): T8 sequence (P30542 1-326 E172V) with V172E, T257I

A1R [15] = molecular target: T12, A1R (Homo sapiens, UniProt P30542); design: species or system HEK293A; conditions: % AP-TGFα release, not normalised to a reference agonist
T12 sequence (P30542 1-326): T8 sequence (P30542 1-326 E172V) with V172E

A1R [16] = molecular target: T12, A1R; experiment: TGF-alpha shedding assay, HEK293A; assay type: cell-based
A2AR [17] = molecular target: T7, A2AR; experiment: TGF-alpha shedding assay, HEK293A; assay type: cell-based
A3R (Hs-A3R) L264T [18] = molecular target: T1, A3R (Hs-A3R) L264T; experiment: cell-based; design: species or system HEK293A; remark: listed apart in the source
A2AR [19] = molecular target: A2AR (Homo sapiens, UniProt P29274, T256I); experiment: cell-based; design: species or system HEK293A; conditions: HEK293-A, read-out: Emax (%)
Chain of A2AR (Homo sapiens, UniProt P29274, T256I) (P29274 whole entry T256I): as the sequence (P29274 whole entry) above, with T256I counted along it

[20] = % AP-TGFα release, not normalised to a reference agonist, agonist

For `Nc1ncnc2c1ncn2[C@@H]1O[C@H](CO)[C@@H](O)[C@H]1O` [adenosine], the “Emax (%)” value (A3R (Hs-A3R) L264T [1]; [20]) was 22 ± 0.84%, the “Emax (%)” value (A3R (Hs-A3R) [2]; [20]) was 37 ± 2.0% and the “Emax (%)” value (A2BR [3]; [20]) was 57 ± 1.2%. For the same compound, the “Emax (%)” value (A3R (Hs-A3R) [4]; [20]) was 14 ± 4.1%, the “Emax (%)” value (A3R (Hs-A3R) [5]; [20]) was 39 ± 2.6% and the “Emax (%)” value (A3R (Hs-A3R) [6]; [20]) was 39 ± 0.82%.
`CNc1ncnc2c1ncn2[C@@H]1O[C@H](CO)[C@@H](O)[C@H]1O` [m^6A] showed an Emax (A2AR [7]) of 17 ± 0.57%, an Emax (A3R (Hs-A3R) L264T [1]; HEK293-A, read-out: Emax (%)) of 27 ± 2.2% and an Emax (A1R [8]) of 32 ± 1.9%. For the same compound, the EC50 (Ss-A3R) was 39 ± 3.1 nM, the Emax (A3R (Hs-A3R) [2]; HEK293-A, read-out: Emax (%)) was 41 ± 2.2% and the “Emax (%)” value (A2AR [9]) was 29 ± 2.0%. For the same compound, the EC50 (A2BR [10]) was 51000 ± 6400 nM, the Emax (A2BR [3]; HEK293-A, read-out: Emax (%)) was 76 ± 4.7% and the Emax (A1R T270L [11]) was 15 ± 1.6%. For the same compound, the EC50 (A1R T270L [12]) was 540 ± 62 nM, the Emax (A2AR [13]) was 3.5 ± 0.68% and the Emax (A3R (Hs-A3R) [4]; HEK293-A, read-out: Emax (%)) was 22 ± 2%. The Emax (A1R [14]) was 42 ± 1.2%, the “Emax (%)” value (A1R [15]) was 17 ± 2.2% and the EC50 (A1R [16]) was 840 ± 130 nM. It also gave an EC50 (A2AR [17]) of 13000 ± 1100 nM, an EC50 (A3R (Hs-A3R) L264T [18]) of 6.4 ± 0.44 nM and an Emax (A3R (Hs-A3R) [5]; HEK293-A, read-out: Emax (%)) of 43 ± 1.7%. The Emax (A2AR [19]) was 30 ± 1.7% and the Emax (A3R (Hs-A3R) [6]; HEK293-A, read-out: Emax (%)) was 43 ± 2.1%.
